PubChem BioAssay AID2060331 (Molecular Pharmacology Branch, DTP, NCI, 2025)

Tested on: Hs578T multi-cell spheroids, viability
Test: Anticancer human tumor Hs578T cell line growth inhibition [IpAb];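 note: drug exposure lasted 7 days before readout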
Conditions: for IC50: curve of first compound; for viability, T/C: stronger effect = lower value
In short: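 Combinations with ipatasertib or abemaciclib were tested on tumour spheroids holding HUVEC (25%) and MSC (15%) alongside 60% malignant cells. Top concentration was at or near clinical Cmax (10 microM if undefined), descending in half-log steps.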

[1] = second compound 0.1 µM, first compound 0.0316 µM
[2] = second compound 0.1 µM, first compound 0.1 µM
[3] = second compound 0.1 µM, first compound 0.316 µM
[4] = second compound 0.1 µM, first compound 1 µM
[5] = second compound 0.1 µM, first compound 3.16 µM
[6] = second compound 0.1 µM, first compound 10 µM
[7] = second compound 0.316 µM, first compound 0.0316 µM
[8] = second compound 0.316 µM, first compound 0.1 µM
[9] = second compound 0.316 µM, first compound 0.316 µM
[10] = second compound 0.316 µM, first compound 1 µM
[11] = second compound 0.316 µM, first compound 3.16 µM
[12] = second compound 0.316 µM, first compound 10 µM
[13] = second compound 1 µM, first compound 0.0316 µM
[14] = second compound 1 µM, first compound 0.1 µM
[15] = second compound 1 µM, first compound 0.316 µM
[16] = second compound 1 µM, first compound 1 µM
[17] = second compound 1 µM, first compound 3.16 µM
[18] = second compound 1 µM, first compound 10 µM
[19] = second compound 3.16 µM, first compound 0.0316 µM
[20] = second compound 3.16 µM, first compound 0.1 µM
[21] = second compound 3.16 µM, first compound 0.316 µM
[22] = second compound 3.16 µM, first compound 1 µM
[23] = second compound 3.16 µM, first compound 3.16 µM
[24] = second compound 3.16 µM, first compound 10 µM
[25] = second compound 10 µM, first compound 0.0316 µM
[26] = second compound 10 µM, first compound 0.1 µM
[27] = second compound 10 µM, first compound 0.316 µM
[28] = second compound 10 µM, first compound 1 µM
[29] = second compound 10 µM, first compound 3.16 µM
[30] = second compound 10 µM, first compound 10 µM

**Q.** What does the source list for `C=CC(=O)N1CCN(c2nc(=O)n(-c3c(C)ccnc3C(C)C)c3nc(-c4c(O)cccc4F)c(F)cc23)C(C)C1` (stereo not given) + CC(C)NCC(C(=O)N1CCN(c2ncnc3c2C(C)CC3O)CC1)c1ccc(Cl)cc1?
**A.** IC50 (second compound 0.1 µM): > 10 µM; IC50 (second compound 0.316 µM): > 10 µM; IC50 (second compound 1 µM): > 10 µM; IC50 (second compound 3.16 µM): 3.95 µM; IC50 (second compound 10 µM): < 0.0316 µM; viability, T/C [1]: 94.2%; viability, T/C [2]: 103%; viability, T/C [3]: 102%; viability, T/C [4]: 112%; viability, T/C [5]: 94.4%; viability, T/C [6]: 72%; viability, T/C [7]: 83.7%; viability, T/C [8]: 90.6%; viability, T/C [9]: 90.1%; viability, T/C [10]: 89.5%; viability, T/C [11]: 84%; viability, T/C [12]: 65.5%; viability, T/C [13]: 70.8%; viability, T/C [14]: 70.9%; viability, T/C [15]: 69.3%; viability, T/C [16]: 75.1%; viability, T/C [17]: 66.2%; viability, T/C [18]: 55.1%; viability, T/C [19]: 56.7%; viability, T/C [20]: 59.6%; viability, T/C [21]: 55.1%; viability, T/C [22]: 54.5%; viability, T/C [23]: 52.8%; viability, T/C [24]: 41.9%; viability, T/C [25]: 45.1%; viability, T/C [26]: 50.4%; viability, T/C [27]: 46.9%; viability, T/C [28]: 49.1%; viability, T/C [29]: 46.5%; viability, T/C [30]: 20.4%

**Q.** Which results are given for `CC1(C)CCC(CN2CCN(c3ccc(C(=O)NS(=O)(=O)c4ccc(NCC5CCOCC5)c([N+](=O)[O-])c4)c(Oc4cnc5[nH]ccc5c4)c3)CC2)=C(c2ccc(Cl)cc2)C1` + CC(C)NCC(C(=O)N1CCN(c2ncnc3c2C(C)CC3O)CC1)c1ccc(Cl)cc1?
**A.** IC50 (second compound 0.1 µM): 5.57 µM; IC50 (second compound 0.316 µM): 5.15 µM; IC50 (second compound 1 µM): 3.84 µM; IC50 (second compound 3.16 µM): 1.56 µM; IC50 (second compound 10 µM): < 0.0316 µM; viability, T/C [1]: 97.1%; viability, T/C [2]: 96.7%; viability, T/C [3]: 101%; viability, T/C [4]: 95.3%; viability, T/C [5]: 83%; viability, T/C [6]: 15.7%; viability, T/C [7]: 79.9%; viability, T/C [8]: 90.2%; viability, T/C [9]: 89.2%; viability, T/C [10]: 81.9%; viability, T/C [11]: 77.1%; viability, T/C [12]: 13.5%; viability, T/C [13]: 66.9%; viability, T/C [14]: 66.5%; viability, T/C [15]: 66.4%; viability, T/C [16]: 63%; viability, T/C [17]: 58.2%; viability, T/C [18]: 11.1%; viability, T/C [19]: 53.3%; viability, T/C [20]: 54.3%; viability, T/C [21]: 51.3%; viability, T/C [22]: 53.4%; viability, T/C [23]: 45.9%; viability, T/C [24]: 10.2%; viability, T/C [25]: 46.7%; viability, T/C [26]: 46.9%; viability, T/C [27]: 46.8%; viability, T/C [28]: 42.3%; viability, T/C [29]: 40.9%; viability, T/C [30]: 5.27%
